The values below come from US8030354B2, “Substituted biphenyl GPR40 modulators” (Amgen Inc., priority 2007, dated 2011).

Experiment [1] addresses T1, GPR40 (Homo sapiens, UniProt O14842). In words: Cell-based aequorin assay (CHO cells stably expressing GPR40 and aequorin). More on the design: expressed in transfected cells; host or cells: CHO cells stably transfected with GPR40 and aequorin. Conditions: activation of human GPR40, CHO cells, 0.01% HSA. The method in brief:
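CHO cells stably co-expressing GPR40 and aequorin, loaded with coelenterazine (1 ug/mL, 2 h, room temperature) in H/HBSS with 20 mM Hepes and 0.01% fatty acid-free HSA. Serially diluted compounds added; luminescence recorded over 20 s. EC50 from dose-response of maximum relative light units.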

In experiment [2] the target is T1, GPR40. The experiment is described as follows: Inositol phosphate accumulation assay (A9_GPR40 cells). More on the design: expressed in transfected cells; host or cells: CHO cells stably transfected with GPR40 and aequorin. The experiment is classed as cell-based. Conditions: inositol phosphate assay, A9_GPR40 cells, 1 hour; read-out: IP3 EC50. On the procedure: Briefly, the Aequorin assays were performed on doubly stable CHO cells expressing GPR40 and Aequorin DNA. […] The luminescence was recorded over a period of 20 seconds with a Microlumat luminometer (Berthold). […] The inositol phosphate assay was performed on an A9 cell line stably transfected with GPR40 (A9_GPR40). The cells were incubated with different concentrations of compounds and [^3H] inositol accumulation was measured after 1 hour.
An A9 cell line stably transfected with GPR40 (A9_GPR40) was used in IP accumulation assays. A9_GPR40 cells were plated in 96-well plates containing 20,000 cells/well in DMEM containing 10% FBS. After the cells attached to the well surface, the media was replaced with inositol free DMEM containing 10% dialyzed FBS and 1 μCi, mL ^3H-inositol and incubated for 16 hours. Compounds were diluted in HBSS/10 mM LiCl containing a desired amount of HSA and added directly to cells. Following 1 hour incubation at 37° C., the media was replaced with 100 μL of 20 mM formic acid to quench the reaction. 50 μL of the extract was then added to 100 μL of SPA beads, incubated overnight, and measured on a TopCount the following day.

T1 sequence (O14842 whole entry): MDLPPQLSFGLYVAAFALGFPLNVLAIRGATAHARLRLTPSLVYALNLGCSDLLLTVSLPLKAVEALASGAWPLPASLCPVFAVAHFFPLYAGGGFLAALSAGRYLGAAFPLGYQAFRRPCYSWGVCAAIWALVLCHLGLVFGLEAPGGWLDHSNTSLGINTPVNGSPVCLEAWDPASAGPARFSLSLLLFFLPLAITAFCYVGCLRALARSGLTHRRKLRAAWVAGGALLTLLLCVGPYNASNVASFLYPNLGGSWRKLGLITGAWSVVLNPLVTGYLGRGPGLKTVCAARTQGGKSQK

For orientation: EC50 means the concentration needed to bring the measured effect to its halfway point. In the case of `CCC[C@H](CC(=O)O)c1cccc(OCc2ccc(-c3cc(OC)ccc3F)c(C3=CCCC3(C)C)c2)c1` (single isomer, unassigned) [Example 59, (3R)-3-(3-(((2-(5,5-Dimethyl-1-cyclopenten-1-yl)-2′-fluoro-5′-(methyloxy)-1,1′-biphenyl-4-yl)methyl)oxy)phenyl)hexanoic acid or (3S)-3-(3-(((2-(5,5-dimethyl-1-cyclopenten-1-yl)-2′-fluoro-5′-(methyloxy)-1,1′-biphenyl-4-yl)methyl)oxy)phenyl)hexanoic acid], the EC50 is 100 to 1000 nM on GPR40 [1] and 10 to 100 nM on GPR40 [2].

In the case of `CCCCOc1cc(COc2cccc([C@H](CCC)CC(=O)O)c2)ccc1-c1cc(OC)ccc1F` (single isomer, unassigned) [Example 60, (3R)-3-(3-(((2-(Butyloxy)-2′-fluoro-5′-(methyloxy)-1,1′-biphenyl-4-yl)methyl)oxy)phenyl)hexanoic acid or (3S)-3-(3-(((2-(butyloxy)-2′-fluoro-5′-(methyloxy)-1,1′-biphenyl-4-yl)methyl)oxy)phenyl)hexanoic acid], the EC50 at GPR40 [1] and on GPR40 [2] was 100 to 1000 nM each time.

As to `COc1ccc(F)c(-c2ccc(COc3cccc(C(C)CC(=O)O)c3)cc2/C=C/C(C)(C)C)c1` (single isomer, unassigned) [Example 64.4, (3R)-3-(3-(((2-((1E)-3,3-Dimethyl-1-butenyl)-2′-fluoro-5′-(methyloxy)-1,1′-biphenyl-4-yl)methyl)oxy)phenyl)butanoic acid or (3S)-3-(3-(((2-((1E)-3,3-dimethyl-1-butenyl)-2′-fluoro-5′-(methyloxy)-1,1′-biphenyl-4-yl)methyl)oxy)phenyl)butanoic acid], the values for the EC50 at GPR40 [1] and at GPR40 [2] were 100 to 1000 nM and 10 to 100 nM, respectively.

As for `COc1ccc(F)c(-c2ccc(COc3cccc(C(C)CC(=O)O)c3)cc2C2=CCC(C)(C)CC2)c1` (single isomer, unassigned) [Example 64.5, (3R)-3-(3-(((2-(4,4-Dimethyl-1-cyclohexen-1-yl)-2′-fluoro-5′-(methyloxy)-1,1′-biphenyl-4-yl)methyl)oxy)phenyl)butanoic acid or (3S)-3-(3-(((2-(4,4-dimethyl-1-cyclohexen-1-yl)-2′-fluoro-5′-(methyloxy)-1,1′-biphenyl-4-yl)methyl)oxy)phenyl)butanoic acid], the EC50 fell in the range of 100 to 1000 nM at GPR40 [1] and 10 to 100 nM on GPR40 [2].

In the case of `COc1ccc(F)c(-c2ccc(COc3cccc(C(C)CC(=O)O)c3)cc2CCC(C)(C)C)c1` (single isomer, unassigned) [Example 64.6, (3R)-3-(3-(((2-(3,3-Dimethylbutyl)-2′-fluoro-5′-(methyloxy)-1,1′-biphenyl-4-yl)methyl)oxy)phenyl)butanoic acid or (3S)-3-(3-(((2-(3,3-dimethylbutyl)-2′-fluoro-5′-(methyloxy)-1,1′-biphenyl-4-yl)methyl)oxy)phenyl)butanoic acid], the figures for the EC50 on GPR40 [1] and on GPR40 [2] were 100 to 1000 nM and 10 to 100 nM, respectively.

As for `COc1ccc(F)c(-c2ccc(COc3cccc(C(C)CC(=O)O)c3)cc2C2CCC(C)(C)CC2)c1` (single isomer, unassigned) [Example 64.7, (3R)-3-(3-(((2-(4,4-Dimethylcyclohexyl)-2′-fluoro-5′-(methyloxy)-1,1′-biphenyl-4-yl)methyl)oxy)phenyl)butanoic acid or (3S)-3-(3-(((2-(4,4-dimethylcyclohexyl)-2′-fluoro-5′-(methyloxy)-1,1′-biphenyl-4-yl)methyl)oxy)phenyl)butanoic acid], the EC50 was 100 to 1000 nM at GPR40 [1] and 10 to 100 nM at GPR40 [2].

`COc1ccc(F)c(-c2ccc(COc3cccc(C(C)CC(=O)O)c3)c(F)c2C(C)(C)C)c1` (single isomer, unassigned) [Example 64.10, (3R)-3-(3-(((2-(1,1-Dimethylethyl)-2′,3-difluoro-5′-(methyloxy)-1,1′-biphenyl-4-yl)methyl)oxy)phenyl)butanoic acid or (3S)-3-(3-(((2-(1,1-dimethylethyl)-2′,3-difluoro-5′-(methyloxy)-1,1′-biphenyl-4-yl)methyl)oxy)phenyl)butanoic acid]: the EC50 on GPR40 [1] and on GPR40 [2] was 100 to 1000 nM throughout.

Take `CCCC(C)(C)c1cc(COc2cccc(C(C)CC(=O)O)c2)ccc1-c1cc(OC)ccc1F` (single isomer, unassigned) [Example 64.11, (3R)-3-(3-(((2-(1,1-Dimethylbutyl)-2′-fluoro-5′-(methyloxy)-1,1′-biphenyl-4-yl)methyl)oxy)phenyl)butanoic acid or (3S)-3-(3-(((2-(1,1-dimethylbutyl)-2′-fluoro-5′-(methyloxy)-1,1′-biphenyl-4-yl)methyl)oxy)phenyl)butanoic acid]: the concentration giving a half-maximal response (EC50) on GPR40 [1] and on GPR40 [2] was 100 to 1000 nM each time.

On to `COc1ccc(F)c(-c2ccc(COc3cccc(C(C)CC(=O)O)c3)cc2C2=CCCCCC2)c1` (single isomer, unassigned) [Example 64.12, (3R)-3-(3-(((2-(1-Cyclohepten-1-yl)-2′-fluoro-5′-(methyloxy)-1,1′-biphenyl-4-yl)methyl)oxy)phenyl)butanoic acid or (3S)-3-(3-(((2-(1-cyclohepten-1-yl)-2′-fluoro-5′-(methyloxy)-1,1′-biphenyl-4-yl)methyl)oxy)phenyl)butanoic acid], for which the figures for the EC50 on GPR40 [1] and at GPR40 [2] were 100 to 1000 nM and 10 to 100 nM, respectively.

Turning to `COc1ccc(F)c(-c2ccc(COc3cccc(C(C)CC(=O)O)c3)cc2C2=CCC(C(C)(C)C)CC2)c1` (single isomer, unassigned) [Example 64.13, (3R)-3-(3-(((2-(4-(1,1-Dimethylethyl)-1-cyclohexen-1-yl)-2′-fluoro-5′-(methyloxy)-1,1′-biphenyl-4-yl)methyl)oxy)phenyl)butanoic acid or (3S)-3-(3-(((2-(4-(1,1-dimethylethyl)-1-cyclohexen-1-yl)-2′-fluoro-5′-(methyloxy)-1,1′-biphenyl-4-yl)methyl)oxy)phenyl)butanoic acid], the results for the EC50 at GPR40 [1] and on GPR40 [2] were 100 to 1000 nM and 10 to 100 nM, respectively.

With `CCCCCc1cc(COc2cccc(C(C)CC(=O)O)c2)ccc1-c1cc(OC)ccc1F` (single isomer, unassigned) [Example 64.14, (3R)-3-(3-(((2′-Fluoro-5′-(methyloxy)-2-pentyl-1,1′-biphenyl-4-yl)methyl)oxy)phenyl)butanoic acid or (3S)-3-(3-(((2′-fluoro-5′-(methyloxy)-2-pentyl-1,1′-biphenyl-4-yl)methyl)oxy)phenyl)butanoic acid], the EC50 on GPR40 [1] and on GPR40 [2] was 100 to 1000 nM in each case.

With `COc1ccc(F)c(-c2ccc(COc3cccc(C(C)CC(=O)O)c3)cc2CCC2CCCCC2)c1` (single isomer, unassigned) [Example 64.15, (3R)-3-(3-(((2-(2-Cyclohexylethyl)-2′-fluoro-5′-(methyloxy)-1,1′-biphenyl-4-yl)methyl)oxy)phenyl)butanoic acid or (3S)-3-(3-(((2-(2-cyclohexylethyl)-2′-fluoro-5′-(methyloxy)-1,1′-biphenyl-4-yl)methyl)oxy)phenyl)butanoic acid], the EC50 at GPR40 [1] is 100 to 1000 nM; on GPR40 [2], 10 to 100 nM.

Turning to `COc1ccc(F)c(-c2ccc(COc3cccc([C@H](C)CC(=O)O)c3)cc2C23CC4CC(CC(C4)C2)C3)c1` (single isomer, unassigned) [Example 64.16, (3R)-3-(3-(((2′-Fluoro-5′-(methyloxy)-2-tricyclo[3.3.1.1˜3,7˜]dec-1-yl-1,1′-biphenyl-4-yl)methyl)oxy)phenyl)butanoic acid or (3S)-3-(3-(((2′-fluoro-5′-(methyloxy)-2-tricyclo[3.3.1.1˜3,7˜]dec-1-yl-1,1′-biphenyl-4-yl)methyl)oxy)phenyl)butanoic acid], the figures for the EC50 at GPR40 [1] and at GPR40 [2] were 100 to 1000 nM and 10 to 100 nM, respectively.

On to `COc1ccc(F)c(-c2ccc(COc3cccc(C(C)CC(=O)O)c3)cc2C2CCCCCC2)c1` (single isomer, unassigned) [Example 64.17, (3R)-3-(3-(((2-Cycloheptyl-2′-fluoro-5′-(methyloxy)-1,1′-biphenyl-4-yl)methyl)oxy)phenyl)butanoic acid or (3S)-3-(3-(((2-cycloheptyl-2′-fluoro-5′-(methyloxy)-1,1′-biphenyl-4-yl)methyl)oxy)phenyl)butanoic acid], for which the EC50 on GPR40 [1] lay within 100 to 1000 nM; on GPR40 [2] it was 10 to 100 nM.

With `COc1ccc(F)c(-c2ccc(COc3cccc(C(C)CC(=O)O)c3)cc2C2(C)CC2)c1` (single isomer, unassigned) [Example 64.18, (3R)-3-(3-(((2′-Fluoro-2-(1-methylcyclopropyl)-5′-(methyloxy)-1,1′-biphenyl-4-yl)methyl)oxy)phenyl)butanoic acid or (3S)-3-(3-(((2′-fluoro-2-(1-methylcyclopropyl)-5′-(methyloxy)-1,1′-biphenyl-4-yl)methyl)oxy)phenyl)butanoic acid], the EC50 on GPR40 [1] and at GPR40 [2] was 100 to 1000 nM in each case.
